Reference: article PMC4291147, “Molecular Basis of Histone Tail Recognition by Human TIP5 PHD Finger and Bromodomain of the Chromatin Remodeling Complex NoRC” (Structure(London, England:1993), 2015)
Where no end group is shown, it is not given here.

Assays:
TIP5 PHD-BRD = biological target: T1, TIP5 PHD-BRD (Homo sapiens, UniProt Q9UIF9); test: ITC, histone peptide binding to tandem TIP5 PHD-BRD; conditions: 20 mM HEPES (pH 7.5–8), 150 mM NaCl, 0.5 mM TCEP, 293 or 298 K, protein 60–120 μM in cell, peptide 800–1,500 μM in syringe, ± error of nonlinear least-squares fit
T1 construct: (residues 1673– 1901, UniProt: Q9UIF9); His6-SUMO (N, cleaved yes); made in house; host or cells: E. coli BL21(DE3) Rosetta or BL21(DE3)-R3-pRARE2
T1 sequence (Q9UIF9 1673-1901): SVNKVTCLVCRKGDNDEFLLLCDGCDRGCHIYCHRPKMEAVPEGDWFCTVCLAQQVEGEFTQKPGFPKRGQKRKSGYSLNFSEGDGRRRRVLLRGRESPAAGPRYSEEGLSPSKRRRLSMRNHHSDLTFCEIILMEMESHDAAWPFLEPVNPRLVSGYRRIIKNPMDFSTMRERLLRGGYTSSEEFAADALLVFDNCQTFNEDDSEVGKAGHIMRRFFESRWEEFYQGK
Procedure: (§1) All calorimetric experiments were performed on an ITC200 or VP-ITC microcalorimeters (MicroCal). Protein solutions were buffer exchanged by gel filtration into buffer (20 mM HEPES [pH 8], 150 mM NaCl, 0.5 mM Tris [2-carboxyethyl]phosphine [TCEP]), and lyophilized histone peptides were dissolved in the same buffer. All measurements were carried out at 293 or 298 K. Protein solutions (60–120 μM) in the calorimetric cell were titrated with the peptide solutions (800–1,500 μM) in the syringe. The data were analyzed with the MicroCal ORIGIN software package using, in most cases, a single binding site model. The first data point was excluded from the analysis. […]
(§2) The cDNAs encoding tandem PHD zinc finger and bromodomain of human TIP5 […]
(§3) GeneBank: Q9UIF8) were synthesized by GenScript with codons optimized f or E. coli. expression and were subcloned into a modif ied pET15 vector using NdeI/XhoI sites f or expression as recombinant proteins with a His6 tag fused with small ubiquitin like modifier (SUMO)-1 fusion tag at the N terminus. cDNA sequences were used as a template to amplify single PHD zinc fingers (residues 1673- 1728 for TIP5; residues 2054- 2168 f or BAZ2B) regions. […]

BAZ2B PHD-BRD = biological target: T2, BAZ2B PHD-BRD (Homo sapiens, UniProt Q9UIF8); test: ITC, histone peptide binding to tandem BAZ2B PHD-BRD; conditions: 20 mM HEPES (pH 7.5–8), 150 mM NaCl, 0.5 mM TCEP, 293 or 298 K, protein 60–120 μM in cell, peptide 800–1,500 μM in syringe, ± error of nonlinear least-squares fit
T2 construct: human BAZ2B (residues 1928-2168,; His6-SUMO (N, cleaved yes); made in house; host or cells: E. coli BL21(DE3) Rosetta or BL21(DE3)-R3-pRARE2
T2 sequence (Q9UIF8 1928-2168): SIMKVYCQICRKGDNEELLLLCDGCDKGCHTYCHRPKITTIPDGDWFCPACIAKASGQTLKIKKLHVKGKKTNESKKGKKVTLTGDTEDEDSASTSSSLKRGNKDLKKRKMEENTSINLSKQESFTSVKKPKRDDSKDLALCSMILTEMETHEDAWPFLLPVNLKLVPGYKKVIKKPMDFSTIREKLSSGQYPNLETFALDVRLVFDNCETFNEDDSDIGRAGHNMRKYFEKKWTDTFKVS
Procedure: as §1, §2, §3

BAZ2B PHD = biological target: T3, BAZ2B PHD (Homo sapiens, UniProt Q9UIF8); test: ITC, histone peptide binding to BAZ2B PHD; conditions: 20 mM HEPES (pH 7.5–8), 150 mM NaCl, 0.5 mM TCEP, 293 or 298 K, protein 60–120 μM in cell, peptide 800–1,500 μM in syringe, ± error of nonlinear least-squares fit
T3 construct: 1928- 1983 for BAZ2B) and bromodomains; His6-SUMO (N, cleaved yes); made in house; host or cells: E. coli BL21(DE3) Rosetta or BL21(DE3)-R3-pRARE2
T3 sequence (Q9UIF8 1928-1983): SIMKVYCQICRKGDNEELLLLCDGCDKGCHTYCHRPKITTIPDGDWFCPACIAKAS
Procedure: as §1, §2, §3

TIP5 PHD = biological target: T4, TIP5 PHD (Homo sapiens, UniProt Q9UIF9); test: ITC, histone peptide binding to TIP5 PHD; conditions: 20 mM HEPES (pH 7.5–8), 150 mM NaCl, 0.5 mM TCEP, 293 or 298 K, protein 60–120 μM in cell, peptide 800–1,500 μM in syringe, ± error of nonlinear least-squares fit
T4 construct: single PHD zinc fingers (residues 1673- 1728 for TIP5); residues; His6-SUMO (N, cleaved yes); made in house; host or cells: E. coli BL21(DE3) Rosetta or BL21(DE3)-R3-pRARE2
T4 sequence (Q9UIF9 1673-1728): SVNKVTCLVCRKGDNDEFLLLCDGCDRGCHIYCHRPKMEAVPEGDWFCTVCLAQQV
Procedure: as §1, §2, §3

BAZ2B BRD = biological target: T5, BAZ2B BRD (Homo sapiens, UniProt Q9UIF8); test: ITC, histone peptide binding to BAZ2B BRD; conditions: 20 mM HEPES (pH 7.5–8), 150 mM NaCl, 0.5 mM TCEP, 293 or 298 K
T5 construct: 2054- 2168 f or BAZ2B) regions; hexa-histidine (pNIC28-Bsa4, TEV site) (N, cleaved yes); made in house; host or cells: E. coli BL21(DE3) Rosetta or BL21(DE3)-R3-pRARE2
T5 sequence (Q9UIF8 2054-2168): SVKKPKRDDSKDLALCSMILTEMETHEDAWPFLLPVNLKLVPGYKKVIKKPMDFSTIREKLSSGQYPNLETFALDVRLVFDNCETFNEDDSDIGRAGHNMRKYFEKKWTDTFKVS
Procedure: as §1, §2
GeneBank: Q9UIF8) were synthesized by GenScript with codons optimized f or E. coli. expression and were subcloned into a modif ied pET15 vector using NdeI/XhoI sites f or expression as recombinant proteins with a His6 tag fused with small ubiquitin like modifier (SUMO)-1 fusion tag at the N terminus. cDNA sequences were used as a template to amplify single PHD zinc fingers (residues 1673- 1728 for TIP5; residues 2054- 2168 f or BAZ2B) regions. Single PHD zinc f ingers were introduced into the same modif ied SUMO tagged plasmid whereas single bromodomains were f urther subcloned into pET28 derived expression vectors, pNIC28- Bsa4 using ligation independent cloning (Stols et al., 2002).
Protein Expression and Purification
Best expression constructs encoding all target proteins were transformed into E. coli competent BL21(DE3) Rosetta cells (Invitrogen) or into BL21 (DE3)-R3-pRARE2 cells (phage- resistant derivative with a pRARE plasmid encoding rare codon tRNAs). Cells were grown at 37 °C in Terrific Broth (Sigma) from overnight cultures until A600 reached between 0.6- 0.8, then the media was cooled and 0.2 mM isopropyl-β-Dthiogalactopyranoside (IPTG) was added to induce the protein expression at 20 °C f or 16 hours. An extra 0.1 mM ZnCl 2 was added in the protein expression to those targets that contained a PHD zinc f inger.
Different purification procedures have been optimized for each target protein. In common, E. coli overexpressed cells were lysed using an EmulsiFlex-C5 hig h-pr es s ure homogenizer (Avestin - Mannheim, Germany) or high -pressure cell disruption (Constant Systems Limited) in loading buffer A from the nickel affinity column (HisTrap Chelating FF 5ml) in the presence of Protease Inhibitor Cocktail EDTA-free (Roche).
Lysates were cleared by centrif ugation (14,000 x g f or 45m in at 4 °C, JLA 16.250 rotor, on a Beckman Coulter Avanti J-20 XP centrif uge). After centrif ugation, the supernatant was loaded onto the nickel column and eluted in an imidazole linear gradient. The

TIP5 BRD = biological target: T6, TIP5 BRD (Homo sapiens, UniProt Q9UIF9); test: ITC, histone peptide binding to TIP5 BRD; conditions: 20 mM HEPES (pH 7.5–8), 150 mM NaCl, 0.5 mM TCEP, 293 or 298 K
T6 construct: (residues 1797- 1899 for TIP5, residues); hexa-histidine (pNIC28-Bsa4, TEV site) (N, cleaved yes); made in house; host or cells: E. coli BL21(DE3) Rosetta or BL21(DE3)-R3-pRARE2
T6 sequence (Q9UIF9 1797-1899): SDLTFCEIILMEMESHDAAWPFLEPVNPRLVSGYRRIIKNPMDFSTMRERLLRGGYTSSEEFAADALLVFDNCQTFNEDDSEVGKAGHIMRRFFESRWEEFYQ
Procedure: All calorimetric experiments were performed on an ITC200 or VP-ITC microcalorimeters (MicroCal). […] The data were analyzed with the MicroCal ORIGIN software package using, in most cases, a single binding site model. The first data point was excluded from the analysis. […]
as §2
GeneBank: Q9UIF8) were synthesized by GenScript with codons optimized f or E. coli. expression and were subcloned into a modif ied pET15 vector using NdeI/XhoI sites f or expression as recombinant proteins with a His6 tag fused with small ubiquitin like modifier (SUMO)-1 fusion tag at the N terminus. cDNA sequences were used as a […]
Single PHD zinc f ingers were introduced into the same modif ied SUMO tagged plasmid whereas single bromodomains were f urther subcloned into pET28 derived expression vectors, pNIC28- Bsa4 using ligation independent […]
Protein Expression and Purification […]
competent BL21(DE3) Rosetta cells (Invitrogen) or into BL21 (DE3)-R3-pRARE2 cells (phage- resistant derivative with a pRARE plasmid encoding rare codon tRNAs). Cells were grown at 37 °C in Terrific Broth (Sigma) from overnight cultures until A600 reached between 0.6- 0.8, then the media was cooled and 0.2 mM isopropyl-β-Dthiogalactopyranoside (IPTG) was added to induce the protein expression at 20 °C f or 16 hours. An extra 0.1 mM ZnCl 2 was added in the protein expression to those targets that contained a PHD zinc f inger.
Different purification procedures have been optimized for each target protein. In common, E. coli overexpressed cells were lysed using an EmulsiFlex-C5 hig h-pr es s ure homogenizer (Avestin - Mannheim, Germany) or high -pressure cell disruption (Constant Systems Limited) in loading buffer A from the nickel affinity column (HisTrap Chelating FF 5ml) in the presence of Protease Inhibitor Cocktail EDTA-free (Roche). […]
on a Beckman Coulter Avanti J-20 XP centrif uge). After centrif ugation, the supernatant was loaded onto the nickel column and eluted in an imidazole linear gradient. The

BAZ2 BRD = system: BAZ2 BRD; design: method as in Structural Genomics Consortium [SGC] website; conditions: ref Structural Genomics Consortium [SGC] website; cited from earlier work
[1] = ITC, protein 60–120 μM in cell, peptide 800–1,500 μM in syringe, ± error of nonlinear least-squares fit

CC(=O)NCCCC[C@H](NC(=O)CNC(=O)CNC(=O)[C@@H](NC(=O)[C@H](CO)NC(=O)[C@H](CCCCN)NC(=O)[C@H](CCCNC(=N)N)NC(=O)[C@H](C)NC(=O)[C@@H](NC(=O)[C@H](CCC(N)=O)NC(=O)[C@H](CCCCN)NC(=O)[C@@H](NC(=O)[C@H](CCCNC(=N)N)NC(=O)[C@H](C)N)[C@@H](C)O)[C@@H](C)O)[C@@H](C)O)C(=O)N[C@@H](C)C(=O)N1CCC[C@H]1C(=O)N[C@@H](CCCNC(=N)N)C(=O)N[C@@H](CCCCN)C(=O)O [H3(1–18)K14ac]
Kd (TIP5 PHD-BRD): 1.87 ± 0.29 µM
Kd (BAZ2B PHD-BRD): 2.33 ± 0.19 µM

C[C@H](N)C(=O)N[C@@H](CCCNC(=N)N)C(=O)N[C@H](C(=O)N[C@@H](CCCCN)C(=O)N[C@@H](CCC(N)=O)C(=O)N[C@H](C(=O)N[C@@H](C)C(=O)N[C@@H](CCCNC(=N)N)C(=O)N[C@@H](CCCCN)C(=O)O)[C@@H](C)O)[C@@H](C)O [H3(1–9)]
Kd (BAZ2B PHD): 3.07 ± 0.71 µM
Kd (TIP5 PHD): 2.51 ± 0.63 µM

Lys-Ser-Thr-Gly-Gly-Kac-Ala-Pro-Ala-Gln [H3(9-19)K14ac [R17A], mutated H3K14ac peptide, R17 to A17]
KD (BAZ2B BRD; [1]): no binding

GGK(Ac)GLGK(Ac)G [H4(6–13)K8acK12ac]
Kd (TIP5 BRD; [1]): 63.25 ± 0.11 µM

GAK(Ac)RHRKVL [H4(14–22)K16ac]
N (BAZ2B BRD; ITC stoichiometry, ± fit error): 1.062 ± 0.064
TΔS (BAZ2B BRD; ITC): 2.989 kcal/mol
ΔG (BAZ2B BRD; ITC): -5.809 kcal/mol
ΔH (BAZ2B BRD; ITC, ± fit error): -2.820 ± 0.223 kcal/mol
N (TIP5 BRD; ITC stoichiometry, ± fit error): 1.186 ± 0.015
TΔS (TIP5 BRD; ITC): -6.533 kcal/mol
ΔG (TIP5 BRD; ITC): -6.207 kcal/mol
TΔS (TIP5 BRD; ITC, listed as H4(14-22)K16ac): -6.533 kcal/mol
ΔG (TIP5 BRD; ITC, listed as H4(14-22)K16ac): -6.206 kcal/mol
ΔH (TIP5 BRD; ITC, ± fit error): -12.740 ± 0.226 kcal/mol
ΔH (TIP5 BRD; ITC, ± fit error, listed as H4(14-22)K16ac): -12.740 ± 0.226 kcal/mol

CCCOc1ccn2c(C(C)=O)cc(-c3ccccc3S(C)(=O)=O)c2c1 [GSK2801]
potency/selectivity in words (BAZ2 BRD): selective nanomolar

GAK(Ac)RHRK(Ac)VL [H4(14–22)K16acK20ac]
Kd (BAZ2B BRD; [1]): 42.41 ± 0.42 µM
Kd (TIP5 BRD; [1]): 26.1 ± 0.37 µM

Gly-Ala-Kac-Arg-His-Ala-Lys-Val-Leu [H4(14-22)K16ac [R19A], mutated H4K16ac peptide, R19 to A19]
KD (TIP5 BRD; [1]): no binding

CNCCCC[C@H](NC(=O)[C@@H](NC(=O)[C@H](CCCNC(=N)N)NC(=O)[C@H](C)N)[C@@H](C)O)C(=O)N[C@@H](CCC(N)=O)C(=O)N[C@H](C(=O)N[C@@H](C)C(=O)N[C@@H](CCCNC(=N)N)C(=O)N[C@@H](CCCCN)C(=O)O)[C@@H](C)O [H3(1–9)K4me]
Kd (BAZ2B PHD): 3.98 ± 0.61 µM
Kd (TIP5 PHD): 2.5 ± 0.43 µM
